Reference: PMC7048316, “Yeast filamentation signaling is connected to a specific substrate translocation mechanism of the Mep2 transceptor” (PLoS Genetics, 2020)

What was measured:
[1] = molecular target: T1, Mep2 (ScMep2) (Saccharomyces cerevisiae, UniProt P41948); format: cell-based; conditions: 3 mM ammonium; pH 5.5; labelled compound
T1 construct: untagged full-length Mep2 in pOO2, cRNA-injected Xenopus oocytes; family adopts a trimeric fold

[2] = substrate: N; assay: cells, lysate or membranes; conditions: -100 mV (voltage-dependent), pH 5.5, NH4Cl

T1 sequence (P41948 whole entry): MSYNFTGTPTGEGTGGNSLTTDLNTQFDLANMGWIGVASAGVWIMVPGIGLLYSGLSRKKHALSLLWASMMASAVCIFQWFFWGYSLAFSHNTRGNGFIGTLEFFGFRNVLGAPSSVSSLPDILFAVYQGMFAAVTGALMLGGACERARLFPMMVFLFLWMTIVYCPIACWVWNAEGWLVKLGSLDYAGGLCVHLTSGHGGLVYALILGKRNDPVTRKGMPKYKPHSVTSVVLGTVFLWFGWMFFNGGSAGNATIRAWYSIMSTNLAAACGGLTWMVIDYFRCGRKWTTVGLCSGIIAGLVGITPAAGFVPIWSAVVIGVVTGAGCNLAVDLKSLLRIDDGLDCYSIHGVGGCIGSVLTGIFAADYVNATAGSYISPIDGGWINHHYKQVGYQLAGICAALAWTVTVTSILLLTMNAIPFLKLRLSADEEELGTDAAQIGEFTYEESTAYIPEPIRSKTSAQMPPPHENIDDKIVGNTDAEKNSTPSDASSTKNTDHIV

| Molecule | 15N-ammonium uptake into Xenopus oocytes, isotope ratio mass spectrometry [1] | Km [2] [µM] |
| --- | --- | --- |
| N [ammonium] | Mep2 and its Mep2^S457D variant were functional in oocytes, enabling substrate transport |  |
| Mep1 (ScMep1) (Saccharomyces cerevisiae S288C) (protein) MESRTTGPLTTETYDGPTVAFMILGAALVFFMVPGLGFLYSGLARRKSALALIWVVLMATLVGILQWYFWGYSLAFSKSAPNNKFIGNLDSFGFRNVYGKKFDEDAYPELAYATFQMMFSCVNLSIIAGATAERGRLLPHMVFLFILATIGYCPVTYWIWSPGGWAYQWGVLDWAGGGNIEILSAVSGFVYSWFLGKRNEKLLINFRPHNVSLVTLGTSILWFGWLLFNSASSLSPNLRSVYAFMNTCLSAITGGMTWCLLDYRSEKKWSTVGLCSGIISGLVAATPSSGCITLYGSLIQGIVAGVVCNFATKLKYYAKVDDAMDILAEHGVAGVIGLIFNALFGADWVIGMDGTTEHEGGWVTHNYKQMYKQIAYIAASIGYTAAVTAIICFVLGYIPGMRLRISEEAEEAGMDEDQIGEFAYDYVEVRRDYYLWGVDEDSQRSDVNHRVNNAHLAAERSSSGTNSSSDGNGEMIQSEKILPIHQEDPANR |  | 258 |
